Source: patent publication US20250127788A1, “PHARMACEUTICAL COMPOSITION CONTAINING TRIAZINE DERIVATIVE” (Shionogi & Co., Ltd., priority 2021, published 2025)
Where two headings read alike, the source gives them in different places.

Legend:
SARS-CoV-2 [1] = experiment: microbe, parasite or virus in culture; format: cell-based; details: Severe acute respiratory syndrome coronavirus 2, 72 h; VeroE6/TMPRSS2 cells, 3 days; class symbols
[2] = target: Recombinant SARS-CoV-2 3CL Protease (Severe acute respiratory syndrome coronavirus 2 (2019-nCoV) (SARS-CoV-2), UniProt P0DTD1); experiment: Test Example 2: inhibitory activity test against SARS-CoV-2 3CL protease; format: biochemical; details: class symbols
[3] = tested on: SARS-CoV-2 Omicron Strain; experiment: Test Example 1-3: CPE suppression in Vero E6/TMPRSS2 cells, Omicron strains; format: cell-based
HCoV-229E = experiment: Test Example 8: antiviral effect on HCoV-229E (MRC-5 cells, CellTiter-Glo); format: cell-based; details: Human coronavirus 229E, MRC5, read-out: EC50 (50% HCoV-229E infected cell death inhibitory concentration), 72 hours
Experimental: Test Example 8: Antiviral Effect on HCoV-229E
The test sample is preliminarily diluted with DMSO to an appropriate concentration, and a 3-fold serial dilution series is prepared and then dispensed into a 96-well plate and diluted in a maintenance medium (MEM, 2% FBS, penicillin-streptomycin).
MRC-5 cells (2×10^4 cells/well) suspended in a subculture medium (DMEM, 10% FBS, penicillin-streptomycin) are seeded in a 96-well plate a day before infection, and the next day, HCoV-229E (1000 TCID50/well) suspended in a maintenance medium (MEM, 2% FBS, penicillin-streptomycin) is infected for 1 hour. Thereafter, virus fluid is removed, a maintenance medium including a test reagent is added, and culturing is carried out in a CO2 incubator for 72 hours. Furthermore, in order to examine cytotoxicity of the test reagent, the same operation is performed in the absence of virus.
After returning the plate cultured for 72 hours to room temperature, CellTiter-Glo (registered trademark) 2.0 is dispensed into each well and mixed with a plate mixer. After a certain time interval, the luminescence signal (Lum) is measured with a plate reader.
When x is taken as the logarithmic value of the compound concentration and y as % Efficacy, the inhibition curve is approximated by the following Logistic regression equation, and the value of x when substituting 50(%) for y is calculated as EC50.
[formula] […]

[4] = tested on: SARS-CoV-2 hCoV-19/Japan/TY7-501/2021; experiment: Test Example 9: influence of human serum and mouse serum on anti-SARS-CoV-2 activity; format: cell-based; details: Severe acute respiratory syndrome coronavirus 2, serum 100% condition by linear regression
SARS-CoV-2 [5] = experiment: microbe, parasite or virus in culture; format: cell-based; details: Severe acute respiratory syndrome coronavirus 2, HEK-293T; HEK293T/ACE2-TMPRSS2 cells; strains WK-521, QK002, TY7-501, TY8-612, TY11-927-P1
[6] = tested on: SARS-CoV-2 hCoV-19/Japan/TY38-873/2021; experiment: Test Example 10-2: CPE suppression in HEK293T/ACE2-TMPRSS2 cells (TY38-873); format: cell-based; details: Severe acute respiratory syndrome coronavirus 2, HEK-293T
[7] = tested on: SARS-CoV-2 hCoV19/Japan/TY11-927/2021 strain; format: in vivo, Syrian hamsters; details: 6 days after start
[8] = tested on: SARS-CoV-2 hCoV19/Japan/TY11-927/2021 strain; design: species or system Syrian hamsters; details: in vivo
[9] = tested on: SARS-CoV-2 hCoV19/Japan/TY11-927/2021 strain; format: in vivo, Syrian hamsters; details: 3 days after start of living together
in vitro = details: human
SARS-CoV Hanoi strain = experiment: microbe, parasite or virus in culture; details: Severe acute respiratory syndrome coronavirus, VeroE6/TMPRSS2, 72 h, read-out: EC50 (50% virus infected cell death inhibitory concentration)
HCoV-OC43 = experiment: microbe, parasite or virus in culture; details: Betacoronavirus 1, OC43, MRC5, 42 h, read-out: EC90 (90% HCoV-OC43 viral replication inhibitory concentration)
[10] = target: SARS-CoV-2 3CL Protease WT (Severe acute respiratory syndrome coronavirus 2 (2019-nCoV) (SARS-CoV-2), UniProt P0DTD1); experiment: biochemical; details: read-out: EC50 (table head; method calculates IC50)

Structure (SMILES)	EC50 (SARS-CoV-2 [1]) [nM]	IC50 [2] [nM]	other results
Cc1cncc(-n2c(=O)nc(Nc3cc4cn(C)nc4cc3F)n(Cc3ccc(F)c(C#N)c3)c2=O)c1 [Compound I-018]	< 1000	< 100	
Cn1cc2cc(Nc3nc(=O)n(-c4cncc5ccccc45)c(=O)n3Cc3ccc(F)c(C#N)c3)c(F)cc2n1 [Compound I-025]	< 1000	< 100	
Cn1cnc(Cn2c(=O)[nH]/c(=N\c3cc4cn(C)nc4cc3Cl)n(Cc3cc(F)c(F)cc3F)c2=O)n1			EC50 ([3]; Severe acute respiratory syndrome coronavirus 2, VeroE6/TMPRSS2, Omicron TY38-871 (BA.1.1)): 360 nM; EC50 ([3]; Severe acute respiratory syndrome coronavirus 2, VeroE6/TMPRSS2, Omicron TY38-873 (BA.1)): 290 nM; EC50 ([3]; Severe acute respiratory syndrome coronavirus 2, VeroE6/TMPRSS2, Omicron TY40-385 (BA.2)): 520 nM; EC50 ([3]; Severe acute respiratory syndrome coronavirus 2, VeroE6/TMPRSS2, Omicron TY41-686 (XE)): 440 nM; EC50 ([3]; Severe acute respiratory syndrome coronavirus 2, VeroE6/TMPRSS2, Omicron TY41-702 (BA.5)): 400 nM; EC50 ([3]; Severe acute respiratory syndrome coronavirus 2, VeroE6/TMPRSS2, Omicron TY41-703 (BA.4)): 220 nM; EC50 ([3]; Severe acute respiratory syndrome coronavirus 2, VeroE6/TMPRSS2, Omicron TY41-716 (BA.2.75)): 300 nM; EC50 (HCoV-229E): 5530 nM; EC50 ([4]; human serum, read-out: human serum PA-EC50 (protein-adjusted EC50)): 3020 nM; EC50 ([4]; mouse serum, read-out: mouse serum PA-EC50 (protein-adjusted EC50)): 3930 nM; EC50 (SARS-CoV-2 [5]): 26 to 58 nM; EC50 [6]: 83 nM; lung virus titer of administered hamsters co-housed with infected hamster ([7]; 30 mg/kg oral twice a day for six days): 3.48 log10 PFU50/mL; lung virus titer of administered hamsters co-housed with infected hamster ([7]; 200 mg/kg oral twice a day for six days): a detection limit value or less; lung virus titer of uninfected hamsters co-housed with treated infected hamster [8]: the detection limit value or less; intranasal concha virus titer of uninfected hamster co-housed with treated infected hamster [9]: 2.89 log10 TCID50/mL; lung virus titer of uninfected hamster co-housed with treated infected hamster [9]: 2.97 log10 TCID50/mL; CC50 (in vitro): > 200000 nM; EC50 (SARS-CoV Hanoi strain): 209 nM; EC90 (HCoV-OC43): 74 nM
Cc1nc2cc(C)c(Nc3nc(=O)n(Cc4c[nH]cn4)c(=O)n3Cc3cc(F)c(F)c(F)c3)cc2s1 [Compound I-001]		1000 to 10000	
N#Cc1cc(Cn2c(Nc3cc4cn(C(F)F)nc4cc3Cl)nc(=O)n(-c3cncc4ccccc34)c2=O)ccc1F [Compound I-024]	< 1000	< 100	
Cn1cc2cc(Nc3nc(=O)n(-c4cncc5ccccc45)c(=O)n3Cc3cc(F)c(F)c(F)c3)ccc2n1 [Compound I-016]	< 1000	< 100	
Cn1cnc(Cn2c(=O)nc(Nc3cc4cn(C(F)F)nc4cc3Cl)n(Cc3cc(F)c(F)c(F)c3)c2=O)n1 [Compound I-030]	1000 to 10000	< 100	
O=c1nc(Nc2ccc3nn(CC(F)F)cc3c2)n(Cc2cc(F)c(F)c(F)c2)c(=O)n1-c1cncc2ccccc12 [Compound I-034]	< 1000	< 100	
O=c1nc(Nc2cc3cn(CCN4CCOCC4)nc3cc2Cl)n(Cc2cc(F)c(F)c(F)c2)c(=O)n1-c1cncc2ccccc12 [Compound I-020]	1000 to 10000	< 100	
Cc1cncc(-n2c(=O)nc(Nc3cc4cn(C)nc4cc3C)n(Cc3ccc(F)c(C#N)c3)c2=O)c1 [Compound I-019]	< 1000	< 100	
Cn1cnc(Cn2c(=O)nc(Nc3cc4cn(CC(F)F)nc4cc3Cl)n(Cc3cc(F)c(F)c(F)c3)c2=O)n1 [Compound I-029]	< 1000	< 100	
Cc1nc2cc(Cl)c(Nc3nc(=O)n(-c4cncc5ccccc45)c(=O)n3Cc3cc(F)c(F)c(F)c3)cc2n1C [Compound I-032]	1000 to 10000	< 100	
CC(=O)N1CC(n2cc3cc(Nc4nc(=O)n(-c5cncc6ccccc56)c(=O)n4Cc4cc(F)c(F)c(F)c4)c(Cl)cc3n2)C1 [Compound I-007]		< 100	
Cc1cc2nn(C)cc2cc1Nc1nc(=O)n(-c2cncc3ccccc23)c(=O)n1Cc1ccc(F)c(C#N)c1 [Compound I-027]	< 1000	< 100	
CC(=O)NCCn1cc2cc(Nc3nc(=O)n(-c4cncc5ccccc45)c(=O)n3Cc3cc(F)c(F)c(F)c3)c(Cl)cc2n1 [Compound I-033]	1000 to 10000	< 100	
Cn1cc2cc(Nc3nc(=O)n(-c4cncc5ccccc45)c(=O)n3Cc3ccc(F)c(C#N)c3)c(Cl)cc2n1 [Compound I-015]	< 1000	< 100	
N#Cc1cc(Cn2c(Nc3ccc4nn(CC(F)F)cc4c3)nc(=O)n(-c3cncc4ccccc34)c2=O)ccc1F [Compound I-009]	< 1000	< 100	
Cn1cnc(Cn2c(=O)nc(Nc3cc4cn(C)nc4cc3Cl)n(Cc3cc(F)c(F)c(F)c3)c2=O)n1 [Compound I-021]	< 1000	< 100	
Cn1cnc(Cn2c(=O)nc(Nc3cc4cn(CCO)nc4cc3Cl)n(Cc3cc(F)c(F)c(F)c3)c2=O)n1 [Compound I-028]	1000 to 10000	< 100	
Cn1cc2cc(Nc3nc(=O)n(-c4cncc(CO)c4)c(=O)n3Cc3cc(F)c(F)c(F)c3)ccc2n1 [Compound I-008]		100 to 1000	
Cc1nc2cc(Cl)c(Nc3nc(=O)n(Cc4ncn(C)n4)c(=O)n3Cc3cc(F)c(F)c(F)c3)cc2n1C [Compound I-022]	1000 to 10000	< 100	
Cc1cncc(-n2c(=O)nc(Nc3ccc4nn(CC(F)F)cc4c3)n(Cc3ccc(F)c(C#N)c3)c2=O)c1 [Compound I-011]	< 1000	< 100	
Cn1cc2cc(Nc3nc(=O)n(-c4cncc5ccccc45)c(=O)n3Cc3cc(F)c(F)c(F)c3)c(Cl)cc2n1 [Compound I-014]	< 1000	< 100	
Cc1cncc(-n2c(=O)nc(Nc3cc4cn(C(F)F)nc4cc3Cl)n(Cc3ccc(F)c(C#N)c3)c2=O)c1 [Compound I-026]	< 1000	< 100	
Cc1cncc(-n2c(=O)nc(Nc3cc4cn(C)nc4cc3F)n(Cc3cc(F)c(F)c(F)c3)c2=O)c1 [Compound I-002]	< 1000	< 100	
Cc1cncc(-n2c(=O)nc(Nc3cc4cn(C)nc4cc3C)n(Cc3cc(F)c(F)c(F)c3)c2=O)c1 [Compound I-004]	1000 to 10000	< 100	
Cc1cncc(-n2c(=O)nc(Nc3cc4cn(C)nc4cc3Cl)n(Cc3cc(F)c(F)c(F)c3)c2=O)c1			IC50 [10]: 16.7 nM
Cc1cc2nn(C)cc2cc1Nc1nc(=O)n(-c2cncc3ccccc23)c(=O)n1Cc1cc(F)c(F)c(F)c1 [Compound I-013]	1000 to 10000	< 100	
